This test concerns MM.1S cells. Briefly: Proliferation inhibition (IC50) in MM.1S cells, cell viability assay. To be noted: Homo sapiens, MM1.S, 72 h, read-out: IC50 (nM), proliferation inhibitory activity of MM.1S cells (half inhibitory concentration).

Procedure: MM.1S (B lymphoblast) was purchased from ATCC. Complete medium was RPMI1640 supplemented with 10% FBS and 1% Penicillin-Streptomycin. The cells used were identified as correct cells by STR cells, and were negative for mycoplasma through routine inspections.
IC50 values of the compounds of the present disclosure were measured using Cell Titer Blue, Cell Titer GLO, or WST reagent from Promega Company. Assay details are as follows: Cells were seeded in 100 μL RPMI1640 complete medium containing serum at a density of 15,000 cells/well. After 24 h, the inoculated cells were treated with diluted commercial inhibitor and the compounds of the present disclosure to be tested after serial dilution. After the cells were treated with the compounds of the present disclosure to be tested for 72 h, cell viability was determined after adding the cell viability detection kit listed above according to the reagent operating instructions. The negative control was DMSO, and the positive control was a commercial inhibitor, both of which were used to treat the cells through the same method as that of the compounds of the present disclosure. The growth inhibition of the compounds of the present disclosure on cells was plotted by Prism Graphpad software, and the IC50 values of the compounds of the present disclosure were calculated therefrom.
We tested the activities of the compounds of the present invention in MM.1S cell (which overexpressed IKZF1/3 and is highly sensitive to immunomodulatory drugs) through a dose-dependent manner. The cells were treated with the compounds of the present invention at 10 different successively decreasing concentrations (starting at the highest concentration of 10 μM; 5-fold serial dilutions) for 72 h, and then the cell viability determination was performed in accordance with CCK-8 reagent operating instructions. The experiment was repeated more than three times.

Take `O=C1CCC(N2Cc3c(SCc4ccc(CCCN5CCCCC5)cc4)cccc3C2=O)C(=O)N1` (centres unmarked) [SIAIS1227043, 3-(1-oxo-4-((4-(3-(piperidin-1-yl)propyl)benzyl)thio)isoindolin-2-yl)piperidine-2,6-dione]: the IC50 came to 0.024 ± 0.006 nM.

Turning to `O=C1CCC(N2Cc3c(SCc4ccc(CCCNC5CCCCC5)cc4)cccc3C2=O)C(=O)N1` (centres unmarked) [SIAIS1227045, 3-(4-((4-(3-(cyclohexylamino)propyl)benzyl)thio)-1-oxoisoindolin-2-yl)piperidine-2,6-dione], the IC50 was 0.06 ± 0.01 nM.

In the case of `O=C1CCC(N2Cc3c(SCc4ccc(CCCNC56CC7CC(CC(C7)C5)C6)cc4)cccc3C2=O)C(=O)N1` (centres unmarked) [SIAIS1227047, 3-(4-((4-(3-((adamantan-1-yl)amino)propyl)benzyl)thio)-1-oxoisoindolin-2-yl)piperidine-2,6-dione], the IC50 worked out at 0.028 ± 0.003 nM.

Consider `O=C1CCC(N2Cc3c(SCc4ccc(CCN5CCOCC5)cc4)cccc3C2=O)C(=O)N1` (centres unmarked) [SIAIS1227049, 3-(4-((4-(2-morpholinoethyl)benzyl)thio)-1-oxoisoindolin-2-yl)piperidine-2,6-dione], for which the IC50 is 0.1 ± 0.05 nM.

Consider `O=C1CCC(N2Cc3c(SCc4ccc(CCN5CCSCC5)cc4)cccc3C2=O)C(=O)N1` (centres unmarked) [SIAIS1227051, 3-(1-oxo-4-((4-(2-thiomorpholinoethyl)benzyl)thio)isoindolin-2-yl)piperidine-2,6-dione], for which the IC50 was 0.004 ± 0.002 nM.

Regarding `O=C1CCC(N2Cc3c(SCc4ccc(CCCN5CCOCC5)cc4)cccc3C2=O)C(=O)N1` (centres unmarked) [SIAIS1227053, 3-(4-((4-(3-morpholinopropyl)benzyl)thio)-1-oxoisoindolin-2-yl)piperidine-2,6-dione], the IC50 stood at 0.079 nM.

Take `CCN(CC)Cc1ccc(CSc2cccc3c2CN(C2CCC(=O)NC2=O)C3=O)cc1` (centres unmarked) [SIAIS1227055, 3-(4-((4-((diethylamino)methyl)benzyl)thio)-1-oxoisoindolin-2-yl)piperidine-2,6-dione]: the IC50 came out at 0.285 nM.

In the case of `CC(C)N(Cc1ccc(CSc2cccc3c2CN(C2CCC(=O)NC2=O)C3=O)cc1)C(C)C` (centres unmarked) [SIAIS1227057, 3-(4-((4-((diisopropylamino)methyl)benzyl)thio)-1-oxoisoindolin-2-yl)piperidine-2,6-dione], the IC50 is 0.252 nM.

Regarding `O=C1CCC(N2Cc3c(SCc4ccc(CN(C5CCCCC5)C5CCCCC5)cc4)cccc3C2=O)C(=O)N1` (centres unmarked) [SIAIS1227059, 3-(4-((4-((dicyclohexylamino)methyl)benzyl)thio)-1-oxoisoindolin-2-yl)piperidine-2,6-dione], the IC50 came out at 0.022 nM.

Consider `O=C1CCC(N2Cc3c(SCc4ccc(CNC56CC7CC(CC(O)(C7)C5)C6)cc4)cccc3C2=O)C(=O)N1` (centres unmarked) [SIAIS1227061, 3-(4-((4-(((3-hydroxyadamantan-1-yl)amino)methyl)benzyl)thio)-1-oxoisoindolin-2-yl)piperidine-2,6-dione], for which the IC50 amounted to 0.721 nM.

Consider `O=C1CCC(N2Cc3c(SCCCc4ccc(CNC5CCCCC5)cc4)cccc3C2=O)C(=O)N1` (centres unmarked) [SIAIS1227067, 3-(4-((3-(4-((cyclohexylamino)methyl)phenyl)propyl)thio)-1-oxoisoindolin-2-yl)piperidine-2,6-dione], for which the IC50 worked out at 0.11 ± 0.02 nM.

For the compound `O=C1CCC(N2C(=O)c3cccc(SCCCc4ccc(CNC5CCCCC5)cc4)c3C2=O)C(=O)N1` (centres unmarked) [SIAIS1227069, 4-((3-(4-((cyclohexylamino)methyl)phenyl)propyl)thio)-2-(2,6-dioxopiperidin-3-yl)isoindoline-1,3-dione], the IC50 stood at 1.12 nM.

As to `O=C1CCC(N2Cc3c(SCCCc4ccc(CN5CCOCC5)cc4)cccc3C2=O)C(=O)N1` (centres unmarked) [SIAIS1227075, 3-(4-((3-(4-(morpholinomethyl)phenyl)propyl)thio)-1-oxoisoindolin-2-yl)piperidine-2,6-dione], the IC50 is 0.499 nM.

As for `O=C1CCC(N2C(=O)c3cccc(SCc4ccc(CCCN5CCCCC5)cc4)c3C2=O)C(=O)N1` (centres unmarked) [SIAIS1227085, 2-(2,6-dioxopiperidin-3-yl)-4-((4-(3-(piperidin-1-yl)propyl)benzyl)thio)isoindoline-1,3-dione], the IC50 worked out at 0.37 nM.

`O=C1CCC(N2C(=O)c3cccc(SCc4ccc(CCCNC5CCCCC5)cc4)c3C2=O)C(=O)N1` (centres unmarked) [SIAIS1227087, 4-((4-(3-(cyclohexylamino)propyl)benzyl)thio)-2-(2,6-dioxopiperidin-3-yl)isoindoline-1,3-dione]: the IC50 is 0.283 nM.

Consider `O=C1CCC(N2C(=O)c3cccc(SCc4ccc(CCCN5CCOCC5)cc4)c3C2=O)C(=O)N1` (centres unmarked) [SIAIS1227091, 2-(2,6-dioxopiperidin-3-yl)-4-((4-(3-morpholinopropyl)benzyl)thio) isoindoline-1,3-dione], for which the IC50 worked out at 2 nM.

Regarding `CCN(CC)CCc1ccc(CSc2cccc3c2CN(C2CCC(=O)NC2=O)C3=O)cc1` (centres unmarked) [SIAIS1227097, 3-(4-((4-(2-(diethylamino)ethyl)benzyl)thio)-1-oxoisoindolin-2-yl)piperidine-2,6-dione], the IC50 was 0.163 nM.

Take `CN1CCN(CCc2ccc(CSc3cccc4c3CN(C3CCC(=O)NC3=O)C4=O)cc2)CC1` (centres unmarked) [SIAIS1227099, 3-(4-((4-(2-(4-methylpiperazin-1-yl)ethyl)benzyl)thio)-1-oxoisoindolin-2-yl)piperidine-2,6-dione]: the IC50 was found to be 0.311 nM.

As to `CC1(C)CCC(NCCc2ccc(CSc3cccc4c3CN(C3CCC(=O)NC3=O)C4=O)cc2)CC1` (centres unmarked) [SIAIS1227103, 3-(4-((4-(2-((4,4-dimethylcyclohexyl)amino)ethyl)benzyl)thio)-1-oxoisoindolin-2-yl)piperidine-2,6-dione], the IC50 stood at 0.02 nM.

Turning to `CC1(C)CCC(NCc2ccc(CSc3cccc4c3CN(C3CCC(=O)NC3=O)C4=O)cc2)CC1` (centres unmarked) [SIAIS1227105, 3-(4-((4-(((4,4-dimethylcyclohexyl)amino)methyl)benzyl)thio)-1-oxoisoindolin-2-yl)piperidine-2,6-dione], the IC50 stood at 0.05 ± 0.01 nM.

Turning to `CC(C)(C)NCc1ccc(CSc2cccc3c2CN(C2CCC(=O)NC2=O)C3=O)cc1` (centres unmarked) [SIAIS1227107, 3-(4-((4-((tert-butylamino)methyl)benzyl)thio)-1-oxoisoindolin-2-yl)piperidine-2,6-dione], the IC50 amounted to 0.27 ± 0.07 nM.

For `O=C1CCC(N2Cc3c(SCc4ccc(CN5CCCCCCC5)cc4)cccc3C2=O)C(=O)N1` (centres unmarked) [SIAIS1227109, 3-(4-((4-(azocan-1-ylmethyl)benzyl)thio)-1-oxoisoindolin-2-yl)piperidine-2,6-dione], the IC50 was 0.03 ± 0.004 nM.

On to `CC1(C)CCN(Cc2ccc(CSc3cccc4c3CN(C3CCC(=O)NC3=O)C4=O)cc2)CC1` (centres unmarked) [SIAIS1227113, 3-(4-((4-((4,4-dimethylpiperidin-1-yl)methyl)benzyl)thio)-1-oxoisoindolin-2-yl)piperidine-2,6-dione], for which the IC50 was found to be 0.03 ± 0.01 nM.

Regarding `O=C1CCC(N2Cc3c(SCc4ccc(CN5CCC6(CC5)CC6)cc4)cccc3C2=O)C(=O)N1` (centres unmarked) [SIAIS1227115, 3-(4-((4-((6-azaspiro[2.5]octan-6-yl)methyl)benzyl)thio)-1-oxoisoindolin-2-yl)piperidine-2,6-dione], the IC50 stood at 0.04 ± 0.01 nM.

As for `CC1CC(C)CN(Cc2ccc(CSc3cccc4c3CN(C3CCC(=O)NC3=O)C4=O)cc2)C1` (centres unmarked) [SIAIS1227117, 3-(4-((4-((3,5-dimethylpiperidin-1-yl)methyl)benzyl)thio)-1-oxoisoindolin-2-yl)piperidine-2,6-dione], the IC50 is 0.2 ± 0.08 nM.

As to `O=C1CCC(N2Cc3c(SCc4ccc(CN5CCC6(CCCCC6)CC5)cc4)cccc3C2=O)C(=O)N1` (centres unmarked) [SIAIS1227119, 3-(4-((4-((3-azaspiro[5.5]undecan-3-yl)methyl)benzyl)thio)-1-oxoisoindolin-2-yl)piperidine-2,6-dione], the IC50 was determined as 0.2 nM.

Regarding `O=C1CCC(N2Cc3c(SCc4cccc(CN5CCCCC5)c4)cccc3C2=O)C(=O)N1` (centres unmarked) [SIAIS1227131, 3-(1-oxo-4-((3-(piperidin-1-ylmethyl)benzyl)thio)isoindolin-2-yl)piperidine-2,6-dione], the IC50 was 0.89 ± 0.22 nM.

Turning to `O=C1CCC(N2Cc3c(SCc4cccc(CNC5CCCCC5)c4)cccc3C2=O)C(=O)N1` (centres unmarked) [SIAIS1227133, 3-(4-((3-((cyclohexylamino)methyl)benzyl)thio)-1-oxoisoindolin-2-yl)piperidine-2,6-dione], the IC50 worked out at 0.13 ± 0.07 nM.

With `O=C1CCC(N2Cc3c(SCc4cccc(CNC56CC7CC(CC(C7)C5)C6)c4)cccc3C2=O)C(=O)N1` (centres unmarked) [SIAIS1227135, 3-(4-((3-(((adamantan-1-yl)amino)methyl)benzyl)thio)-1-oxoisoindolin-2-yl)piperidine-2,6-dione], the IC50 turned out to be 0.03 ± 0.01 nM.

With `O=C1CCC(N2Cc3c(SCc4cccc(CN5CCOCC5)c4)cccc3C2=O)C(=O)N1` (centres unmarked) [SIAIS1227137, 3-(4-((3-(morpholinomethyl)benzyl)thio)-1-oxoisoindolin-2-yl)piperidine-2,6-dione], the IC50 amounted to 1.04 ± 0.49 nM.

Take `O=C1CCC(N2Cc3c(SCc4cc(Br)c(CN5CCCCC5)cc4Br)cccc3C2=O)C(=O)N1` (centres unmarked) [SIAIS1227139, 3-(4-((2,5-dibromo-4-(piperidin-1-ylmethyl)benzyl)thio)-1-oxoisoindolin-2-yl)piperidine-2,6-dione]: the IC50 was determined as 1.04 ± 0.21 nM.

Turning to `O=C1CCC(N2Cc3c(SCc4cc(Br)c(CNC5CCCCC5)cc4Br)cccc3C2=O)C(=O)N1` (centres unmarked) [SIAIS1227141, 3-(4-((2,5-dibromo-4-((cyclohexylamino)methyl)benzyl)thio)-1-oxoisoindolin-2-yl)piperidine-2,6-dione], the IC50 was determined as 4.98 ± 0.99 nM.

On to `O=C1CCC(N2Cc3c(SCc4cc(Br)c(CNC56CC7CC(CC(C7)C5)C6)cc4Br)cccc3C2=O)C(=O)N1` (centres unmarked) [SIAIS1227143, 3-(4-((4-(((adamantan-1-yl)amino)methyl)-2,5-dibromobenzyl)thio)-1-oxoisoindolin-2-yl)piperidine-2,6-dione], for which the IC50 worked out at 0.11 ± 0.17 nM.

`O=C1CCC(N2Cc3c(SCc4ccc(CCN5CCCCCCC5)cc4)cccc3C2=O)C(=O)N1` (centres unmarked) [SIAIS1227159, 3-(4-((4-(2-(azocan-1-yl)ethyl)benzyl)thio)-1-oxoisoindolin-2-yl)piperidine-2,6-dione]: the IC50 is 0.02 nM.

In the case of `O=C1CCC(N2Cc3c(SCc4ccc(CCN5CCC(F)(F)CC5)cc4)cccc3C2=O)C(=O)N1` (centres unmarked) [SIAIS1227161, 3-(4-((4-(2-(4,4-difluoropiperidin-1-yl)ethyl)benzyl)thio)-1-oxoisoindolin-2-yl)piperidine-2,6-dione], the IC50 is 0.025 nM.

The values are drawn from patent publication US12582641B2, “Sulfur-containing compound based on glutarimide skeleton and application thereof” (SHANGHAITECH UNIVERSITY, priority 2019, dated 2026).
